Assay results as given in patent US20120321685A1, “COMPOSITIONS CONTAINING OILS HAVING A SPECIFIC GRAVITY HIGHER THAN THE SPECIFIC GRAVITY OF WATER” (SOL-GEL TECHNOLOGIES LTD., priority 2001, published 2012).

Assays:
[1] = cited from earlier work
[2] = Solubility of BMDBM and other solid sunscreen actives in different solvents; format: physicochemical; conditions: in Dipropylene glycol Dibenzoate (Finetex Finsolv PG-22), 25° C.
Method: The solubility of commonly used sunscreen active ingredients was tested by heating a solution of below-mentioned solvents or their mixture to 50° C. under stirring. Access amount of the sunscreen active was added. After thorough mixing to dissolve the solid, the solution was allowed to cool to 25° C. over night in the water bath under constant oscillation and the access active precipitated. The solution was filtered using 0.2 μm PTFE filter, and the concentration of BMDBM was determined by HPLC equipped with UV diode array detector against standard solution of BMDBM. For the other sunscreen actives, the concentration of the active was determined spectroscopically against standard solution of the active. Table 1 lists the solubility values obtained for BMDBM and other sunscreen actives in different commercially available solvents.

[3] = Solubility of benzoyl peroxide in Finsolve PG-22; format: physicochemical
Method: The solubility of benzoyl peroxide in dipropylene glycol dibenzoate (Finsolv PG 22) was measured in a method similar to Example 1. Benzoyl peroxide concentration was determined by titration according to USP. The solubility of benzoyl peroxide in Finsolve PG-22 is 6 wt. %.

CC(COC(=O)c1ccccc1)OCC(C)OC(=O)c1ccccc1 (stereo not drawn) [Dermol DPG-2B, Dipropylene glycol Dibenzoate]
Solvent specific gravity, acc. to D25/25 [1]: 1.117

CC(COC(=O)c1ccccc1)OCC(C)OC(=O)c1ccccc1 (stereo not drawn) [Finsolv PG-22, Dipropylene glycol Dibenzoate]
Solvent specific gravity, acc. to D25/25 [1]: 1.12

CCC(=O)OCc1ccccc1 [Benzyl propionate]
Solvent specific gravity, acc. to D25/25 [1]: 1.028-1.032

Cc1ccc(/C=C2/C(=O)C3(C)CCC2C3(C)C)cc1 (stereo not drawn) [Methyl benzyledene camphor]
Solubility, concentration [2]: 30.16 wt %

CCOC(=O)c1ccccc1 [Ethyl benzoate]
Solvent specific gravity, acc. to D25/25 [1]: 1.043-1.046

COc1ccc(C(=O)c2ccccc2)c(O)c1 [Benzophenone-3]
Solubility, concentration [2]: 26.6 wt %

CCOC(=O)c1ccccc1O [Ethyl salicylate]
Solvent specific gravity, acc. to D25/25 [1]: 1.126-1.130

O=C(OOC(=O)c1ccccc1)c1ccccc1 [benzoyl peroxide]
Solvent quality of dipropylene glycol dibenzoate for BPO ([3]; in dipropylene glycol dibenzoate): good solvent
Solubility of benzoyl peroxide in Finsolve PG-22 ([3]; in dipropylene glycol dibenzoate (Finsolv PG 22), method similar to Example 1, titration according to USP): 6 wt. %
